“And” between values parts separate entries of the source, which are not always exact repeats. Equal values may be shown once.
Columns and labels:
[1] = target: T1, D1 (h) (Homo sapiens, UniProt P21728); experiment: SafetyScreen44; settings: antagonist radioligand, specific binding, 1.0E-05 M
T1 construct: purchased Eurofins (SafetyScreen44)
Method: (§1) Off-target pharmacology was evaluated using the Eurofins SafetyScreen44 in vitro panel. […] Binding assays were performed using radioligand displacement, and enzyme or uptake assays measured inhibition of control activity using validated detection methods (scintillation counting, fluorimetry or photometry). Responses were expressed as percent inhibition of control binding or activity. Based on Eurofins interpretation guidelines, effects ≥50% were considered significant, effects between 25% and 50% weak to moderate, and effects <25% were not considered biologically relevant.

[2] = target: T2, GR (h) (Homo sapiens, UniProt P04150); experiment: SafetyScreen44; settings: agonist radioligand, specific binding, 1.0E-05 M
T2 construct: purchased Eurofins (SafetyScreen44)
Method: as §1

[3] = target: T3, dopamine transporter (h) (Homo sapiens, UniProt Q01959); experiment: SafetyScreen44; settings: antagonist radioligand, specific binding, 1.0E-05 M
T3 construct: purchased Eurofins (SafetyScreen44)
Method: as §1

[4] = target: T4, 5-HT1B (Rattus norvegicus, UniProt P28564); experiment: SafetyScreen44; settings: antagonist radioligand, specific binding, 1.0E-05 M
T4 construct: purchased Eurofins (SafetyScreen44)
Method: as §1

[5] = target: T5, kappa (KOP) (Rattus norvegicus, UniProt P34975); experiment: SafetyScreen44; settings: agonist radioligand, specific binding, 1.0E-05 M
T5 construct: purchased Eurofins (SafetyScreen44)
Method: as §1

[6] = target: T6, MAO-A (Rattus norvegicus, UniProt P21396); experiment: SafetyScreen44; settings: antagonist radioligand, specific binding, 1.0E-05 M
T6 construct: purchased Eurofins (SafetyScreen44)
Method: as §1

[7] = system: Ca2+ channel (L, dihydropyridine site); experiment: SafetyScreen44; settings: antagonist radioligand, specific binding, 1.0E-05 M
Method: as §1

[8] = target: T7, ETA (h) (Homo sapiens, UniProt P25101); experiment: SafetyScreen44; settings: agonist radioligand, specific binding, 1.0E-05 M
T7 construct: purchased Eurofins (SafetyScreen44)
Method: as §1

[9] = target: T8, CB2 (h) (Homo sapiens, UniProt P34972); experiment: SafetyScreen44; settings: agonist radioligand, specific binding, 1.0E-05 M
T8 construct: purchased Eurofins (SafetyScreen44)
Method: as §1

[10] = target: T9, M3 (h) (Homo sapiens, UniProt P20309); experiment: SafetyScreen44; settings: antagonist radioligand, specific binding, 1.0E-05 M
T9 construct: purchased Eurofins (SafetyScreen44)
Method: as §1

[11] = target: T10, D2S (h) (Homo sapiens, UniProt P14416); experiment: SafetyScreen44; settings: agonist radioligand, specific binding, 1.0E-05 M
T10 construct: purchased Eurofins (SafetyScreen44)
Method: as §1

[12] = target: T11, M1 (h) (Homo sapiens, UniProt P11229); experiment: SafetyScreen44; settings: antagonist radioligand, specific binding, 1.0E-05 M
T11 construct: purchased Eurofins (SafetyScreen44)
Method: as §1

[13] = system: KV channel; experiment: SafetyScreen44; settings: antagonist radioligand, specific binding, 1.0E-05 M
Method: as §1

[14] = target: T12, A2A (h) (Homo sapiens, UniProt P29274); experiment: SafetyScreen44; settings: agonist radioligand, specific binding, 1.0E-05 M
T12 construct: purchased Eurofins (SafetyScreen44)
Method: as §1

[15] = target: T13, norepinephrine transporter (h) (Homo sapiens, UniProt P23975); experiment: SafetyScreen44; settings: antagonist radioligand, specific binding, 1.0E-05 M
T13 construct: purchased Eurofins (SafetyScreen44)
Method: as §1

[16] = target: T14, delta (DOP) (h) (Homo sapiens, UniProt P41143); experiment: SafetyScreen44; settings: agonist radioligand, specific binding, 1.0E-05 M
T14 construct: purchased Eurofins (SafetyScreen44)
Method: as §1

[17] = target: T15, 5-HT transporter (h) (Homo sapiens, UniProt P31645); experiment: SafetyScreen44; settings: antagonist radioligand, specific binding, 1.0E-05 M
T15 construct: purchased Eurofins (SafetyScreen44)
Method: as §1

[18] = target: T16, 5-HT2A (h) (Homo sapiens, UniProt P28223); experiment: SafetyScreen44; settings: agonist radioligand, specific binding, 1.0E-05 M
T16 construct: purchased Eurofins (SafetyScreen44)
Method: as §1

[19] = target: T17, CCK1 (CCKA) (h) (Homo sapiens, UniProt P32238); experiment: SafetyScreen44; settings: agonist radioligand, specific binding, 1.0E-05 M
T17 construct: purchased Eurofins (SafetyScreen44)
Method: as §1

[20] = target: T18, CB1 (h) (Homo sapiens, UniProt P21554); experiment: SafetyScreen44; settings: agonist radioligand, specific binding, 1.0E-05 M
T18 construct: purchased Eurofins (SafetyScreen44 panel) assay 36
Method: as §1

[21] = target: T19, H1 (h) (Homo sapiens, UniProt P35367); experiment: SafetyScreen44; settings: antagonist radioligand, specific binding, 1.0E-05 M
T19 construct: purchased Eurofins (SafetyScreen44)
Method: as §1

[22] = target: T20, beta 2 (h) (Homo sapiens, UniProt P07550); experiment: SafetyScreen44; settings: antagonist radioligand, specific binding, 1.0E-05 M
T20 construct: purchased Eurofins (SafetyScreen44)
Method: as §1

[23] = target: T21, N neuronal alpha 4beta 2 (h) (Homo sapiens, UniProt P17787+P43681); experiment: SafetyScreen44; settings: agonist radioligand, specific binding, 1.0E-05 M
T21 construct: purchased Eurofins (SafetyScreen44)
Method: as §1

[24] = target: T22, alpha 2A (h) (Homo sapiens, UniProt P08913); experiment: SafetyScreen44; settings: antagonist radioligand, specific binding, 1.0E-05 M
T22 construct: purchased Eurofins (SafetyScreen44)
Method: as §1

[25] = target: T23, M2 (h) (Homo sapiens, UniProt P08172); experiment: SafetyScreen44; settings: antagonist radioligand, specific binding, 1.0E-05 M
T23 construct: purchased Eurofins (SafetyScreen44)
Method: as §1

[26] = target: T24, Potassium Channel hERG (human) (Homo sapiens, UniProt Q12809); experiment: SafetyScreen44; settings: [3H] Dofetilide, specific binding, 1.0E-05 M
T24 construct: purchased Eurofins (SafetyScreen44)
Method: as §1

[27] = system: BZD (central); experiment: SafetyScreen44; settings: agonist radioligand, specific binding, 1.0E-05 M
Method: as §1

[28] = target: T25, V1a (h) (Homo sapiens, UniProt P37288); experiment: SafetyScreen44; settings: agonist radioligand, specific binding, 1.0E-05 M
T25 construct: purchased Eurofins (SafetyScreen44)
Method: as §1

[29] = target: T26, 5-HT1A (h) (Homo sapiens, UniProt P08908); experiment: SafetyScreen44; settings: agonist radioligand, specific binding, 1.0E-05 M
T26 construct: purchased Eurofins (SafetyScreen44)
Method: as §1

[30] = target: T27, beta 1 (h) (Homo sapiens, UniProt P08588); experiment: SafetyScreen44; settings: agonist radioligand, specific binding, 1.0E-05 M
T27 construct: purchased Eurofins (SafetyScreen44)
Method: as §1

[31] = system: Na+ channel (site 2); experiment: SafetyScreen44; settings: antagonist radioligand, specific binding, 1.0E-05 M
Method: as §1

[32] = target: CYP1A (Homo sapiens, UniProt P05177); experiment: CYP inhibition; settings: human liver microsomes, probe phenacetin, HLM, phenacetin substrate
Method: Cytochrome P450 inhibition was assessed in vitro using human recombinant enzymes in microsomal preparations. […] Enzyme activity was quantified by monitoring formation of substrate-specific metabolites, and percent inhibition was calculated relative to vehicle control.

T12 sequence (P29274 whole entry): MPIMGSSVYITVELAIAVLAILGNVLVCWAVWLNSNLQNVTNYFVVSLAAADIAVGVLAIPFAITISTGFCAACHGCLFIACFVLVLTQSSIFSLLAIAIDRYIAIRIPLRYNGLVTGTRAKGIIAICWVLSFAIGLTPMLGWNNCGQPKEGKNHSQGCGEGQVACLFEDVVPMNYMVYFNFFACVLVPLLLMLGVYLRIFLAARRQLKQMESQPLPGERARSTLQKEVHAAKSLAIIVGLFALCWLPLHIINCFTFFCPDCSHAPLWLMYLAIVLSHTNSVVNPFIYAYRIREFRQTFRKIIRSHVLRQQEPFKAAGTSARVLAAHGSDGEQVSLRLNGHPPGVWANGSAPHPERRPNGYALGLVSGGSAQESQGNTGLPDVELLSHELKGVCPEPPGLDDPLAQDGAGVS
T5 sequence (P34975 whole entry): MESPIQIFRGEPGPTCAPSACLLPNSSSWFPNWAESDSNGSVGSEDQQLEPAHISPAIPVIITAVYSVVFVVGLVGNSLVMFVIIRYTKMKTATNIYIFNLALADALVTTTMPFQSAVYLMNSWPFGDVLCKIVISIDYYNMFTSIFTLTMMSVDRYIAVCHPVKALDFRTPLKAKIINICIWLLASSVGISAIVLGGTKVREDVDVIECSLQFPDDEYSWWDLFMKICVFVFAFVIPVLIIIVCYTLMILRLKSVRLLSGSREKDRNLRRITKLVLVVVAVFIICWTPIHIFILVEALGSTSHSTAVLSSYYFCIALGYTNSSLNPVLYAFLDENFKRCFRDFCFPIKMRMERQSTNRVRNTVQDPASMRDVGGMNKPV
T13 sequence (P23975 whole entry): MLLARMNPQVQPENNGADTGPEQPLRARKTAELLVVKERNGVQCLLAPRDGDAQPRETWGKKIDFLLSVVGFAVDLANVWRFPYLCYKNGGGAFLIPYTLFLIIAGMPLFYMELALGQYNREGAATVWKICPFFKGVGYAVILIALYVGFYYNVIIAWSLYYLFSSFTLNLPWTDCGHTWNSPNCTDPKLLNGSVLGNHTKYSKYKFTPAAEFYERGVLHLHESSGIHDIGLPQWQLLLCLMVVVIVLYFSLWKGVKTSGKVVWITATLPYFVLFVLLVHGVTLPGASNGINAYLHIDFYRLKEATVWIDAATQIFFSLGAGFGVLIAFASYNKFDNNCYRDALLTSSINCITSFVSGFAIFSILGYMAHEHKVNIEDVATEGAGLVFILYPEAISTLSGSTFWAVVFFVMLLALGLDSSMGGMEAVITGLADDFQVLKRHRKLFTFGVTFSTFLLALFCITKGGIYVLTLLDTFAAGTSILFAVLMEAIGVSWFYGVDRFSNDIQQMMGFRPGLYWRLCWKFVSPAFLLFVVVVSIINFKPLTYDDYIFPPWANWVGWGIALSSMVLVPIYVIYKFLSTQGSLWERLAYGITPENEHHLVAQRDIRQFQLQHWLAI
T21 sequence (P43681 29-627 limits assumed): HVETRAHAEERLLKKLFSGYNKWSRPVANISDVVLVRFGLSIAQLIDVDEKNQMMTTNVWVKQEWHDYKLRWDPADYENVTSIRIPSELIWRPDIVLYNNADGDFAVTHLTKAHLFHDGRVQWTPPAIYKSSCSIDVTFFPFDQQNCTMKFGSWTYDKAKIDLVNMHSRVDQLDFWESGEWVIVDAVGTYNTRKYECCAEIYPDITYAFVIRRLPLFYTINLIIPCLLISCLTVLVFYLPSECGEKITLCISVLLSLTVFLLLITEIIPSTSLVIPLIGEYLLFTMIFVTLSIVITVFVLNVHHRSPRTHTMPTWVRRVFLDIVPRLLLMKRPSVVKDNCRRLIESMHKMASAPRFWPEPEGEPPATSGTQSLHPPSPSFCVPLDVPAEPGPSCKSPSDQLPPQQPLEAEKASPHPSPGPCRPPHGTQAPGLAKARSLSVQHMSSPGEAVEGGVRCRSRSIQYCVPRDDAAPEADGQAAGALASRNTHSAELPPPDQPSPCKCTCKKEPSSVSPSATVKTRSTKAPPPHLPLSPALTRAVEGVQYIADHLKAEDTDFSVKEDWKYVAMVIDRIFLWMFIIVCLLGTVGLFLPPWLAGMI
T21 sequence (P17787 26-502): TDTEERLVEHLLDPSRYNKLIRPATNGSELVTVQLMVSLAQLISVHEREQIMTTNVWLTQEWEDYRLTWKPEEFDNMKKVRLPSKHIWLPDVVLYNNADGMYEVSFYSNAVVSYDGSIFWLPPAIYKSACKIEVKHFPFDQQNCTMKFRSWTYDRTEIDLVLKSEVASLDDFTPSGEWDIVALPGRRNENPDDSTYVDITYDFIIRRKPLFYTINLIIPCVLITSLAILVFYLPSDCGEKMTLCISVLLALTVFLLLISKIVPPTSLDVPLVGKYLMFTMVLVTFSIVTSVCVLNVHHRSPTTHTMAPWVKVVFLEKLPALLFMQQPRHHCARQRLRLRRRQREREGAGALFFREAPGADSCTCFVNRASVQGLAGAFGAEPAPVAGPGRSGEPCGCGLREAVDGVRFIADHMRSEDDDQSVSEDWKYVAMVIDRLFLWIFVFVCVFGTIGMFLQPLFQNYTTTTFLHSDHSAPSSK
T22 sequence (P08913 whole entry): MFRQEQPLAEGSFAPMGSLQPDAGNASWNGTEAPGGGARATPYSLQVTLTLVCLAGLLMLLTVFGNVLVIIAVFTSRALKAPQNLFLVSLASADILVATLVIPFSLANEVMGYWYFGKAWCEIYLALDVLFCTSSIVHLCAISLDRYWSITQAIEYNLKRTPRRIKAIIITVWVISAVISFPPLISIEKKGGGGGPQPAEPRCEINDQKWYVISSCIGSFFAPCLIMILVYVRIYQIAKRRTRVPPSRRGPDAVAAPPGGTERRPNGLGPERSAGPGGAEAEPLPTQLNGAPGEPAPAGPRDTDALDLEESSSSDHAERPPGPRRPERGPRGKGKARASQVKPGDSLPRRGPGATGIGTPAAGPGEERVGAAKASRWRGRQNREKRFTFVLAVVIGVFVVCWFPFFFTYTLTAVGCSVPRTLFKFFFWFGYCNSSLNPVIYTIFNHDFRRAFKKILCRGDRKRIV
T23 sequence (P08172 whole entry): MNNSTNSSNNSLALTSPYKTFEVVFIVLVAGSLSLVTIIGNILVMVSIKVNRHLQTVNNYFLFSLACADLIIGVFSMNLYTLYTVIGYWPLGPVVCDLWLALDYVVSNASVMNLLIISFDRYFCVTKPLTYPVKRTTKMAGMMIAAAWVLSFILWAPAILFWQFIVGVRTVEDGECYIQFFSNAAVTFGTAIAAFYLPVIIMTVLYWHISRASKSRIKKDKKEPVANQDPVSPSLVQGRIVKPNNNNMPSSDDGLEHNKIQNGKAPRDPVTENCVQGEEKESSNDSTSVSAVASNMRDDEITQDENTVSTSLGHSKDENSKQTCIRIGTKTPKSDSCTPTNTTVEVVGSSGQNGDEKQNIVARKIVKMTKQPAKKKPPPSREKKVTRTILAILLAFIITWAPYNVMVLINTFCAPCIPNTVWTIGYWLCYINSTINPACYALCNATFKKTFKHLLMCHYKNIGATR
T2 sequence (P04150 whole entry): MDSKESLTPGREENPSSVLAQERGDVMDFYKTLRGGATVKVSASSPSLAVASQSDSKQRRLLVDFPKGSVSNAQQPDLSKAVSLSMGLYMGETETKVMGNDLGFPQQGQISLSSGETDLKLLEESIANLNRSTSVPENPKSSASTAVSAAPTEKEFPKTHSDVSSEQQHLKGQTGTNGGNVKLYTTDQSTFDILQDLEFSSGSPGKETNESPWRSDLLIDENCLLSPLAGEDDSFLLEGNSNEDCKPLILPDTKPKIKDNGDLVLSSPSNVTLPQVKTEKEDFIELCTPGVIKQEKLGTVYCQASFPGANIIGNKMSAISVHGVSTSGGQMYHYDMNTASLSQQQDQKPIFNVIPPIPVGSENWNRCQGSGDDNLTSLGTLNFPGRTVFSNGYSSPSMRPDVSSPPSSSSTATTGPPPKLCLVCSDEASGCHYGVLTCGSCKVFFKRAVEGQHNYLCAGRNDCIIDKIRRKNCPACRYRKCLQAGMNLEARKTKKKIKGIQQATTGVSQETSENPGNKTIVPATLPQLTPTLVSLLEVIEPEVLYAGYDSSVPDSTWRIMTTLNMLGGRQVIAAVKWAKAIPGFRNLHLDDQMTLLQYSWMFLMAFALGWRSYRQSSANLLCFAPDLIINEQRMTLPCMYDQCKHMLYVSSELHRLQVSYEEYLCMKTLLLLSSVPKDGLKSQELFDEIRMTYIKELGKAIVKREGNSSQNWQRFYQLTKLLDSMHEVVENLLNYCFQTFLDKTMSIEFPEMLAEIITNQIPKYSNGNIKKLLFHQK
T15 sequence (P31645 whole entry): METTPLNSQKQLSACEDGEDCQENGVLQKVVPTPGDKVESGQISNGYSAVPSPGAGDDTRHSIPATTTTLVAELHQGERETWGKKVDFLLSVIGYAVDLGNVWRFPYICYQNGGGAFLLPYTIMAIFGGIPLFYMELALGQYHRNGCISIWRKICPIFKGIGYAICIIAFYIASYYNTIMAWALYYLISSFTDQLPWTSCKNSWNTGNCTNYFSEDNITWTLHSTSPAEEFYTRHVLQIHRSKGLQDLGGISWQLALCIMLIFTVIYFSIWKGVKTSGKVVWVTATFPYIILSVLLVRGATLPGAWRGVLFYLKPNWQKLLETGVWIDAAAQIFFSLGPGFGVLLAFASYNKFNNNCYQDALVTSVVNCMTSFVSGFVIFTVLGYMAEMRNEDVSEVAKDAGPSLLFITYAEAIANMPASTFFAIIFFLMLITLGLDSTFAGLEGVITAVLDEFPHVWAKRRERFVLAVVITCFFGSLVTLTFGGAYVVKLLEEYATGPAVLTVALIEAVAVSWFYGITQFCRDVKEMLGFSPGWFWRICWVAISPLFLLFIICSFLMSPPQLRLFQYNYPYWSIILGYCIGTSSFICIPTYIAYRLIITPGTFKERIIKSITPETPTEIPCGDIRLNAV

C[C@H]1COc2c(N3CC[C@@H](Nc4ncccn4)C3)c(F)cc3c(=O)c(C(=O)O)cn1c23 [Compound 46, (S)-9-Fluoro-3-methyl-7-oxo-10-((R)-3-(pyrimidin-2-ylamino)pyrrolidin-1-yl)-2,3-dihydro-7H-[1,4]oxazino[2,3,4-ij]quinoline-6-carboxylic acid]
inhibition at 10 µM [1]: -15.4%
% Inhibition [2]: 3.456%
% Inhibition [3]: 10.0257%
% Inhibition [4]: -16.7063%
% Inhibition [5]: 27.3513% and 27.4%
% Inhibition [6]: -9.13%
% Inhibition [7]: 6.049%
% Inhibition [8]: -5.236%
% Inhibition [9]: 0%
% Inhibition [10]: 2.273%
inhibition at 10 µM [11]: -7.81%
% Inhibition [12]: 3.129%
% Inhibition [13]: -4.644%
% Inhibition [14]: 53.628% and 53.6%
% Inhibition [15]: -6.471%
inhibition at 10 µM [16]: 2.16%
% Inhibition [17]: -16.9663%
% Inhibition [18]: -8.881%
% Inhibition [19]: -2.038%
% Inhibition [20]: 1.857%
% Inhibition [21]: 5.564%
% Inhibition [22]: 11.3086%
inhibition at 10 µM [23]: -41.8%
inhibition at 10 µM [24]: 4.48%
% Inhibition [25]: 1.066%
% Inhibition [26]: -0.2461%
% Inhibition [27]: -44.8289%
% Inhibition [28]: -12.5662%
% Inhibition [29]: -3.77%
% Inhibition [30]: 1.921%
% Inhibition [31]: 23.6539%
inhibition at 10 µM [32]: 9.6%

Cc1cc(C)nc(N[C@@H]2CCN(c3c(F)cc4c(=O)c(C(=O)O)cn5c4c3OC[C@@H]5C)C2)n1 [Compound 50, (S)-10-((R)-3-((4,6-Dimethylpyrimidin-2-yl)amino)pyrrolidin-1-yl)-9-fluoro-3-methyl-7-oxo-2,3-dihydro-7H-[1,4]oxazino[2,3,4-ij]quinoline-6-carboxylic acid]
inhibition at 10 µM [1]: -5.66%
inhibition at 10 µM [2]: 9.19%
inhibition at 10 µM [3]: 22.6%
inhibition at 10 µM [4]: 10.2%
inhibition at 10 µM [5]: 20.1%
inhibition at 10 µM [6]: 15%
% Inhibition [7]: -7.1517%
inhibition at 10 µM [8]: 0.266%
inhibition at 10 µM [9]: 0.988%
inhibition at 10 µM [10]: 3.56%
inhibition at 10 µM [11]: -3.93%
inhibition at 10 µM [12]: 25.5%
% Inhibition [13]: 3.113%
% Inhibition [14]: 82.8099% and 82.8%
inhibition at 10 µM [15]: 2.06%
inhibition at 10 µM [16]: 1.77%
inhibition at 10 µM [17]: 2.23%
inhibition at 10 µM [18]: 41.5%
inhibition at 10 µM [19]: -39.6%
inhibition at 10 µM [20]: -8.28%
inhibition at 10 µM [21]: 5.57%
inhibition at 10 µM [22]: -4.15%
inhibition at 10 µM [23]: 0.422%
inhibition at 10 µM [24]: 23.5%
inhibition at 10 µM [25]: 62.8%
% Inhibition [26]: -1.132%
% Inhibition [27]: 22.3569%
inhibition at 10 µM [28]: 9.53%
inhibition at 10 µM [29]: -2.72%
inhibition at 10 µM [30]: 12.5%
% Inhibition [31]: -10.2569%
inhibition at 10 µM [32]: 16%
